Read-outs that look alike come from different tables or passages of the source.

One assay has as its target T1, human cathepsin L (Homo sapiens, UniProt P07711).
T1 construct: purchased R&D Systems
In words: Cathepsin L assay (Z-FR-AMC fluorescence). The format is biochemical. The following applies: 10 pM human cathepsin L, 30 mins preincubation, Z-FR-AMC 2 μM. The protocol: For the cathepsin L assay, 10 pM of human cathepsin L (R&D Systems; Minneapolis, MN) was preincubated for 30 mins with test compounds. Reactions were initiated by the addition of a peptide substrate Z—FR-AMC (final concentration 2 μM, Anaspec; Fremont, CA). Fluorescence was measured at 2-minute intervals for 30 mins using a 355/460 excitation/emission filter module on an Envision plate reader (Perkin Elmer; Waltham, MA). The IC50 values were calculated for each assay by fitting the curves using a four-parameter equation in GraphPad Prism.

The target in the next assay is T2, HRV3C (Human rhinovirus 14, UniProt P03303).
T2 construct: 3CLpro and HRV3C was added using a Multidrop Combi
In words: biochemical. Details: species or system HRV. The following applies: HRV3C, 30 mins preincubation, SAMDI-MS; read-out: HRV IC50 (bound).

Another assay deals with T3, SARS-Cov-2 3CLpro (Severe acute respiratory syndrome coronavirus 2, UniProt P0DTD1).
T3 construct: 3CLpro and HRV3C was added using a Multidrop Combi
In words: biochemical. The following applies: 3CLpro, 30 mins preincubation, SAMDI-MS; read-out: SARS-Cov-2 IC50 (class).

Assay [1] relates to human beta-coronavirus OC43. In words: OC43 coronavirus antiviral assay in HeLa cells (cytopathic effect, cell-titer-glo). The format is cell-based. The settings on record: Betacoronavirus 1, OC43, HeLa, 144 h, 6 days at 33° C. A general note: Damage to the host cells serves as the signal in cytopathic effect assays.
For assay [2], the system named is B.1.1.7 lineage SARS-CoV-2. In words: microbe, parasite or virus in culture. The settings on record: Severe acute respiratory syndrome coronavirus 2, 96 h, read-out: A549-dual_ACE2_TMPRSS2 (EC50). In kind it is cell-based.

T1 sequence (P07711 114-333): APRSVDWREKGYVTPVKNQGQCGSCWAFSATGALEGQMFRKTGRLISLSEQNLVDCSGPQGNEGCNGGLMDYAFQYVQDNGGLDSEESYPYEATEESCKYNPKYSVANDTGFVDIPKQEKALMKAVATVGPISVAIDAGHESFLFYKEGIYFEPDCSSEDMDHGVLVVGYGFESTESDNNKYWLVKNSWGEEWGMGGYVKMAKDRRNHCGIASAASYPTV
T2 sequence (P03303 1538-1719): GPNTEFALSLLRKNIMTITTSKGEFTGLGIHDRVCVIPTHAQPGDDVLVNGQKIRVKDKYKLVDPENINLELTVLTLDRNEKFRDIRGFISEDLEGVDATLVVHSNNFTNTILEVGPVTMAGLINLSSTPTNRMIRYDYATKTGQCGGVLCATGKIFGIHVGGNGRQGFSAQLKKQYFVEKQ

As a reminder, the IC50 is the concentration needed to halve the response being measured. As a reminder, the EC50 is the concentration that produces a half-maximal response. Consider `CC(C)(C)[C@H](NC(=O)C(F)(Cl)Cl)C(=O)N1C[C@@H]2[C@@H]3CC[C@@H](C3)[C@@H]2[C@H]1C(=O)N[C@H](C#N)C[C@@H]1CCNC1=O` [Compound 67, (1S,2S,3S,6R,7R)—N-[(1S)-1-cyano-2-[(3S)-2-oxopyrrolidin-3-yl]ethyl]-4-[(2S)-2-(2,2-dichloro-2-fluoroacetamido)-3,3-dimethylbutanoyl]-4-azatricyclo[5.2.1.0^{2,6}]decane-3-carboxamide], for which the IC50 against human cathepsin L was not below 10000 nM; at HRV3C it was more than 10000 nM; at SARS-Cov-2 3CLpro it was less than 20 nM. Besides, the concentration for a half-maximal effect (EC50) in assay [1] (read-out: EC50 (class)) and in assay [2] was less than 100 nM in each case.

As to `CC(C)(C)[C@H](NC(=O)C(F)(F)F)C(=O)N1C[C@H]2[C@H]3CC[C@H](CC3)[C@H]2[C@@H]1C(=O)N[C@H](C#N)C[C@@H]1CCNC1=O` [Compound 71a], the figures for the IC50 against human cathepsin L, at HRV3C and at SARS-Cov-2 3CLpro were not below 10000 nM, more than 10000 nM and 2000 to 20000 nM, respectively. In addition, the half-maximal effective concentration (EC50) in assay [1] (read-out: EC50 (bound)) was more than 10000 nM; in assay [2] ([…], numeric bounds given instead of class symbols), more than 10000 nM.

For the compound `COCC(C)(C)[C@H](NC(=O)C(F)(F)C(F)(F)F)C(=O)N1C[C@H]2[C@@H]([C@H]1C(=O)N[C@H](C#N)C[C@@H]1CCNC1=O)[C@H]1C=C[C@@H]2C1` [Compound 100, (1S,3aR,4S,7R,7aS)-N-((S)-1-cyano-2-((S)-2-oxopyrrolidin-3-yl)ethyl)-2-((S)-4-methoxy-3,3-dimethyl-2-(2,2,3,3,3-pentafluoropropanamido)butanoyl)-2,3,3a,4,7,7a-hexahydro-1H-4,7-methanoisoindole-1-carboxamide], the half-inhibitory concentration (IC50) is not below 10000 nM against human cathepsin L, more than 500 nM at HRV3C and less than 20 nM on SARS-Cov-2 3CLpro. Besides, the EC50 in assay [1] (read-out: EC50 (class)) and in assay [2] was less than 100 nM in each case.

For the compound `CC(C)(C)[C@H](NC(=O)C1(F)CC1)C(=O)N1C[C@@H]2[C@@H]3CC[C@@H](C3)[C@@H]2[C@H]1C(=O)N[C@H](C#N)C[C@@H]1CCNC1=O` [Compound 64, (1S,2S,3S,6R,7R)—N-[(1S)-1-cyano-2-[(3S)-2-oxopyrrolidin-3-yl]ethyl]-4-[(2S)-2-[(1-fluorocyclopropyl)formamido]-3,3-dimethylbutanoyl]-4-azatricyclo[5.2.1.0^{2,6}]decane-3-carboxamide], the results for the half-inhibitory concentration (IC50) against human cathepsin L, on HRV3C and on SARS-Cov-2 3CLpro were not below 10000 nM, more than 10000 nM and less than 20 nM, respectively. The EC50 in assay [1] (read-out: EC50 (class)) and in assay [2] was less than 100 nM throughout.

Regarding `CC(C)(C)[C@H](NC(=O)C(F)(F)F)C(=O)N1C[C@H]2[C@@H]([C@H]1C(=O)N[C@H](C#N)C[C@@H]1Oc3ccccc3NC1=O)[C@H]1C=C[C@@H]2C1` [Compound 52, (1S,3aR,4S,7R,7aS)-N-((S)-1-cyano-2-((S)-3-oxo-3,4-dihydro-2H-benzo[b][1,4]oxazin-2-yl)ethyl)-2-((S)-3,3-dimethyl-2-(2,2,2-trifluoroacetamido)butanoyl)-2,3,3a,4,7,7a-hexahydro-1H-4,7-methanoisoindole-1-carboxamide], the figures for the IC50 against human cathepsin L, at HRV3C and at SARS-Cov-2 3CLpro were not below 10000 nM, more than 10000 nM and less than 20 nM, respectively. For the same compound, the concentration giving a half-maximal response (EC50) in assay [1] (read-out: EC50 (class)) and in assay [2] was 100 to 1000 nM each time.

Consider `CC(C)(C)[C@H](NC(=O)CC(F)(F)F)C(=O)N1C[C@H]2[C@@H]([C@H]1C(=O)N[C@H](C#N)C[C@@H]1OCCNC1=O)[C@H]1C=C[C@@H]2C1` [Compound 132], for which the IC50 on human cathepsin L was not below 10000 nM; at HRV3C, more than 500 nM; at SARS-Cov-2 3CLpro, less than 20 nM. The EC50 in assay [1] (read-out: EC50 (class)) and in assay [2] was less than 100 nM throughout.

Turning to `CO[C@](C)(C(=O)N[C@H](C(=O)N1C[C@H]2[C@@H]([C@H]1C(=O)N[C@H](C#N)C[C@@H]1CCNC1=O)[C@H]1C=C[C@@H]2C1)C(C)(C)C)C(F)(F)F` [Compound 78], the results for the concentration for half-maximal inhibition (IC50) against human cathepsin L, on HRV3C and at SARS-Cov-2 3CLpro were not below 10000 nM, more than 10000 nM and 20 to 200 nM, respectively. Further, the EC50 is 1000 to 10000 nM in assay [1] (read-out: EC50 (class)) and 100 to 1000 nM in assay [2].

As for `CC(C)(C)[C@H](NC(=O)C(C)(C)C(F)(F)F)C(=O)N1C[C@H]2[C@@H]([C@H]1C(=O)N[C@H](C#N)C[C@@H]1CCNC1=O)[C@H]1C=C[C@@H]2C1` [Compound 75], the 50% inhibitory concentration (IC50) was not below 10000 nM against human cathepsin L, more than 10000 nM on HRV3C and less than 20 nM on SARS-Cov-2 3CLpro. Moreover, the values for the concentration for a half-maximal effect (EC50) in assay [1] (read-out: EC50 (class)) and in assay [2] were 100 to 1000 nM and less than 100 nM, respectively.

As for `CC(C)(C)[C@H](NC(=O)C(F)(F)F)C(=O)N1C[C@H]2[C@@H]([C@H]1C(=O)N[C@H](C#N)C[C@@H]1OCCNC1=O)[C@H]1C=C[C@@H]2C1` [Compound 114, (1S,3aR,4S,7R,7aS)-N-((S)-1-cyano-2-((S)-3-oxomorpholin-2-yl)ethyl)-2-((S)-3,3-dimethyl-2-(2,2,2-trifluoroacetamido)butanoyl)-2,3,3a,4,7,7a-hexahydro-1H-4,7-methanoisoindole-1-carboxamide], the 50% inhibitory concentration (IC50) was not below 10000 nM on human cathepsin L, more than 500 nM at HRV3C and less than 20 nM at SARS-Cov-2 3CLpro. Moreover, the EC50 in assay [1] (read-out: EC50 (class)) and in assay [2] was less than 100 nM throughout.

With `CC(C)(F)C(=O)N[C@H](C(=O)N1C[C@H]2[C@@H]([C@H]1C(=O)N[C@H](C#N)C[C@@H]1CCNC1=O)[C@H]1C=C[C@@H]2C1)C(C)(C)C` [Compound 74], the IC50 was not below 10000 nM against human cathepsin L, more than 10000 nM on HRV3C and less than 20 nM at SARS-Cov-2 3CLpro. Besides, the half-maximal effective concentration (EC50) in assay [1] (read-out: EC50 (class)) and in assay [2] was less than 100 nM in each case.

For the compound `COC(C)(C)[C@H](NC(=O)C(F)(F)C(F)(F)F)C(=O)N1C[C@H]2[C@@H]([C@H]1C(=O)N[C@H](C#N)C[C@@H]1CCNC1=O)[C@H]1C=C[C@@H]2C1` [Compound 131], the figures for the IC50 against human cathepsin L, at HRV3C and on SARS-Cov-2 3CLpro were not below 10000 nM, more than 500 nM and less than 20 nM, respectively. Also, the half-maximal effective concentration (EC50) in assay [1] (read-out: EC50 (class)) and in assay [2] was less than 100 nM throughout.

On to `CC(C)(C)[C@H](NC(=O)C12CC(C1)C2)C(=O)N1C[C@H]2[C@@H]([C@H]1C(=O)N[C@H](C#N)C[C@@H]1CCNC1=O)[C@H]1C=C[C@@H]2C1` [Compound 66, (1S,3aR,4S,7R,7aS)-2-((S)-2-(bicyclo[1.1.1]pentane-1-carboxamido)-3,3-dimethylbutanoyl)-N-((S)-1-cyano-2-((S)-2-oxopyrrolidin-3-yl)ethyl)-2,3,3a,4,7,7a-hexahydro-1H-4,7-methanoisoindole-1-carboxamide], for which the IC50 was not below 10000 nM against human cathepsin L, more than 10000 nM on HRV3C and less than 20 nM at SARS-Cov-2 3CLpro. Besides, the half-maximal effective concentration (EC50) in assay [1] (read-out: EC50 (class)) and in assay [2] was 100 to 1000 nM throughout.

As to `CC(F)(F)C(=O)N[C@H](C(=O)N1C[C@H]2[C@@H]([C@H]1C(=O)N[C@H](C#N)C[C@@H]1CCNC1=O)[C@H]1C=C[C@@H]2C1)C(C)(C)C` [Compound 73], the IC50 was not below 10000 nM on human cathepsin L, more than 10000 nM at HRV3C and less than 20 nM at SARS-Cov-2 3CLpro. Further, the EC50 in assay [1] (read-out: EC50 (class)) and in assay [2] was less than 100 nM throughout.

Regarding `CC(C)(C)[C@H](NC(=O)C(F)(F)F)C(=O)N1C[C@@H]2[C@@H]([C@@H]3C=C[C@H]2CC3)[C@@H]1C(=O)N[C@H](C#N)C[C@@H]1CCNC1=O` (relative stereo) [Compound 59a, (1R*,3aS*,4R*,7S*,7aR*)-N-((S)-1-cyano-2-((S)-2-oxopyrrolidin-3-yl)ethyl)-2-((S)-3,3-dimethyl-2-(2,2,2-trifluoroacetamido)butanoyl)-2,3,3a,4,7,7a-hexahydro-1H-4,7-ethanoisoindole-1-carboxamide], the figures for the concentration for half-maximal inhibition (IC50) at human cathepsin L, on HRV3C and at SARS-Cov-2 3CLpro were not below 10000 nM, more than 10000 nM and 200 to 2000 nM, respectively. Moreover, the EC50 was more than 10000 nM in assay [1] (read-out: EC50 (bound)) and 1000 to 10000 nM in assay [2].

On to `CC(C)(C)[C@H](NC(=O)C(F)(F)Cl)C(=O)N1C[C@H]2[C@@H]([C@H]1C(=O)N[C@H](C#N)C[C@@H]1CCNC1=O)[C@H]1C=C[C@@H]2C1(F)F` [Compound 128, (1R,2R,3S,6S,7S)-4-[(2S)-2-(2-chloro-2,2-difluoroacetamido)-3,3-dimethylbutanoyl]-N-[(1S)-1-cyano-2-[(3S)-2-oxopyrrolidin-3-yl]ethyl]-10,10-difluoro-4-azatricyclo[5.2.1.0^{2,6}]dec-8-ene-3-carboxamide], for which the IC50 against human cathepsin L was not below 10000 nM; on HRV3C it was more than 500 nM; on SARS-Cov-2 3CLpro, less than 20 nM. The EC50 in assay [1] (read-out: EC50 (class)) and in assay [2] was less than 100 nM throughout.

With `CC(C)(C)[C@H](NC(=O)C(F)(F)F)C(=O)N1C[C@H]2[C@@H]([C@H]1C(=O)N[C@H](C#N)CC1CC3(CC(F)(F)C3)NC1=O)[C@H]1C=C[C@@H]2C1` (mixture of isomers) [Example 83, (1R,2S,3S,6R,7S)—N-[(1S)-1-cyano-2-{2,2-difluoro-6-oxo-5-azaspiro[3.4]octan-7-yl}ethyl]-4-[(2S)-3,3-dimethyl-2-(2,2,2-trifluoroacetamido)butanoyl]-4-azatricyclo[5.2.1.0^{2,6}]dec-8-ene-3-carboxamide], the 50% inhibitory concentration (IC50) against human cathepsin L was not below 10000 nM; on HRV3C it was more than 10000 nM; on SARS-Cov-2 3CLpro, less than 20 nM. Also, the EC50 in assay [1] (read-out: EC50 (class)) and in assay [2] was less than 100 nM in each case.
